# Laboratory results from patent US20170035894A1, “DRUG DELIVERY CONJUGATES FOR TREATING RESISTANT CANCER AND FOR USE IN COMBINATION THERAPY” (ENDOCYTE, INC., priority 2014, published 2017).
# Legend:
# LU1147 NSCLC tumors = assay: Huprime NSCLC PDX tumor model; type: in vivo, Balb/c nu/nu mice; conditions: combined with Docetaxel (one dose of 15 mg/kg)
# Procedure: (§1) Female Balb/c nu/nu mice were fed ad libitum with folate-deficient chow (Harlan diet #TD01013) for the duration of the experiment. Primary human NSCLC models LU1147 or LU2505 fragments (2-4 mm in diameter) were inoculated subcutaneously at the right flank of each mouse. Mice were randomized into experimental groups of 7 mice and test articles were injected through the lateral tail vein under sterile conditions in a volume of 200 μL of phosphate-buffered saline (PBS). These studies were performed at Crown Bioscience (Beijing) Inc., Ground Floor, Light Muller Building, Changping Sector of Zhongguancun Scientific Park, No. 21 Huoju Road, Changping District, Beijing, P.R. China.
# (§2) Growth of each s.c. tumor was followed by measuring the tumor two times per week until a volume of 1200 mm^3 was reached. Tumors were measured in two perpendicular directions using Vernier calipers, and their volumes were calculated as 0.5×L×W^2, where L=measurement of longest axis in mm and W=measurement of axis perpendicular to L in mm.
# LU2505 NSCLC tumors = assay: Huprime NSCLC PDX tumor model; type: in vivo, Balb/c nu/nu mice; conditions: in combination with Docetaxel
# Procedure: as §1, §2
# MDA-MB-231 = assay: In vitro activity against cancer cell lines, 3H-thymidine incorporation; type: cell-based, human
# Procedure: (§3) METHOD. In vitro activity against various cancer cell lines. IC50 values were generated for various cell lines. Cells were heavily seeded in 24-well Falcon plates and allowed to form nearly confluent monolayers overnight. Thirty minutes prior to the addition of the test compound, spent medium was aspirated from all wells and replaced with fresh folate-deficient RPMI medium (FFRPMI). A subset of wells were designated to receive media containing 100 μM folic acid. The cells in the designated wells were used to determine the targeting specificity. Without being bound by theory it is believed herein that the cytotoxic activity produced by test compounds in the presence of excess folic acid, i.e. where there is competition for FR binding, corresponds to the portion of the total activity that is unrelated to FR-specific delivery. Following one rinse with 1 mL of fresh FFRPMI containing 10% heat-inactivated fetal calf serum, each well received 1 mL of medium containing increasing concentrations of test compound (4 wells per sample) in the presence or absence of 100 μM free folic acid as indicated. Treated cells were pulsed for 2 h at 37° C., rinsed 4 times with 0.5 mL of media, and then chased in 1 mL of fresh medium up to 70 h. Spent medium was aspirated from all wells and replaced with fresh medium containing 5 μCi/mL ^3H-thymidine. Following a further 2 h 37° C. incubation, cells were washed 3 times with 0.5 mL of PBS and then treated with 0.5 mL of ice-cold 5% trichloroacetic acid per well. After 15 min, the trichloroacetic acid was aspirated and the cell material solubilized by the addition of 0.5 mL of 0.25 N sodium hydroxide for 15 min. A 450 μL aliquot of each solubilized sample was transferred to a scintillation vial containing 3 mL of Ecolume scintillation cocktail and then counted in a liquid scintillation counter. Final results are expressed as the percentage of ^3H-thymidine incorporation relative to untreated controls.
# AN3CA = assay: as above; type: cell-based, human; conditions: FR expression −; evaluated from 0.1-100 nM
# Procedure: as §3
# NCl/ADR-RES-Cl2 = assay: as above; type: cell-based, human
# Procedure: as §3
# A549 = assay: as above; type: cell-based, human; conditions: FR expression −; evaluated from 0.1-100 nM
# Procedure: as §3
# LNCaP = assay: as above; type: cell-based, human; conditions: FR expression −
# Procedure: as §3
# IGROV1 = assay: as above; type: cell-based, human
# Procedure: as §3
# HepG2 = assay: as above; type: cell-based, human; conditions: FR expression −; evaluated from 0.1-100 nM
# Procedure: as §3
# H23 = assay: as above; type: cell-based, human; conditions: FR expression −; evaluated from 0.1-100 nM
# Procedure: as §3
# ST024 tumors = assay: Ovarian PDX tumor model; type: in vivo, Balb/c nu/nu mice; conditions: combined with Paclitaxel 15 mg/kg
# Procedure: Female Balb/c nu/nu mice were fed ad libitum with folate-deficient chow (Harlan diet #TD01013) for the duration of the experiment. Primary human Endometrial model ST040, TNBC models 5T502 and ST738 and Ovarian model ST024 fragments (2-4 mm in diameter) were inoculated subcutaneously at the right flank of each mouse. Mice were randomized into 6 experimental groups of 5 or 3 mice each and test articles were injected through the lateral tail vein under sterile conditions in a volume of 200 μL of phosphate-buffered saline (PBS).
# as §2
# [1] = EC1456 2 μmol/kg two times a week for two weeks
# [2] = EC1456 4 μmol/kg once a week for two weeks
smiles,measurement,setting,value
CCCC(=O)OCN(C(=O)[C@@H](NC(=O)[C@H]1CCCCN1C)C(C)CC)[C@H](C[C@@H](OC(C)=O)c1nc(C(=O)N[C@@H](Cc2ccc(O)cc2)C[C@H](C)C(=O)NNC(=O)OCCSSC[C@@H](NC(=O)[C@H](CCC(=O)NC[C@H](O)[C@@H](O)[C@H](O)[C@H](O)CO)NC(=O)[C@@H](CCC(=O)O)NC(=O)[C@H](CCC(=O)NC[C@H](O)[C@@H](O)[C@H](O)[C@H](O)CO)NC(=O)[C@@H](CCC(=O)O)NC(=O)[C@H](CCC(=O)NC[C@H](O)[C@@H](O)[C@H](O)[C@H](O)CO)NC(=O)CC[C@@H](NC(=O)c2ccc(NCc3cnc4nc(N)[nH]c(=O)c4n3)cc2)C(=O)O)C(=O)O)cs1)C(C)C (stereo in doubt) [EC1456],PRs,LU1147 NSCLC tumors; [1],5
same,cures,LU1147 NSCLC tumors; [1],2
same,PRs,LU1147 NSCLC tumors; [2],5
same,cures,LU1147 NSCLC tumors; [2],2
same,cures,LU2505 NSCLC tumors; [1],100%
same,cures,LU2505 NSCLC tumors; [2],100%
same,IC50,MDA-MB-231; FR expression +,0.47 nM
same,Competable up to 100 nM,MDA-MB-231; folic acid competition,Yes
same,Activity (IC50),AN3CA,Inactive
same,IC50,NCl/ADR-RES-Cl2; FR expression ++,1.4 nM
same,Competable up to 100 nM,NCl/ADR-RES-Cl2; folic acid competition,Yes
same,Activity (IC50),A549,Inactive (a)
same,IC50,LNCaP,~850 nM
same,IC50,IGROV1; FR expression +,0.72 nM
same,Competable up to 100 nM,IGROV1; folic acid competition,Yes
same,Activity (IC50),HepG2,Inactive
same,Activity (IC50),H23,Inactive
same,animals exhibiting cures,ST024 tumors; [1],100%
same,animals exhibiting cures,ST024 tumors; [2],100%
